Data from ChEMBL document CHEMBL1201862, “PubChem BioAssay data set” (2004).
Calls of active or inactive are those of the source.

Columns and labels:
HEK293 [1] = test: cells; format: functional, cell-based; conditions: Homo sapiens
HEK293 [2] = test: cells; format: functional, cell-based; conditions: Homo sapiens; remark: listed apart in the source
HEK293 [3] = test: NOD2 signaling inhibitors in MDP-stimulated cells, cell-based, uHTS, luminescence (AID 2001); format: functional; conditions: Homo sapiens
HEK293 [4] = test: cells; format: functional, cell-based; conditions: Homo sapiens; remark: listed apart in the source
[5] = target: Nucleotide-binding oligomerization domain-containing protein 2 (Homo sapiens, UniProt Q9HC29); test: NOD2 signaling inhibitors, cell-based, luminescence, uHTS, HEK293 (AID 1566); format: functional
Sequence of Nucleotide-binding oligomerization domain-containing protein 2 (Q9HC29 whole entry, the tested form may be a part): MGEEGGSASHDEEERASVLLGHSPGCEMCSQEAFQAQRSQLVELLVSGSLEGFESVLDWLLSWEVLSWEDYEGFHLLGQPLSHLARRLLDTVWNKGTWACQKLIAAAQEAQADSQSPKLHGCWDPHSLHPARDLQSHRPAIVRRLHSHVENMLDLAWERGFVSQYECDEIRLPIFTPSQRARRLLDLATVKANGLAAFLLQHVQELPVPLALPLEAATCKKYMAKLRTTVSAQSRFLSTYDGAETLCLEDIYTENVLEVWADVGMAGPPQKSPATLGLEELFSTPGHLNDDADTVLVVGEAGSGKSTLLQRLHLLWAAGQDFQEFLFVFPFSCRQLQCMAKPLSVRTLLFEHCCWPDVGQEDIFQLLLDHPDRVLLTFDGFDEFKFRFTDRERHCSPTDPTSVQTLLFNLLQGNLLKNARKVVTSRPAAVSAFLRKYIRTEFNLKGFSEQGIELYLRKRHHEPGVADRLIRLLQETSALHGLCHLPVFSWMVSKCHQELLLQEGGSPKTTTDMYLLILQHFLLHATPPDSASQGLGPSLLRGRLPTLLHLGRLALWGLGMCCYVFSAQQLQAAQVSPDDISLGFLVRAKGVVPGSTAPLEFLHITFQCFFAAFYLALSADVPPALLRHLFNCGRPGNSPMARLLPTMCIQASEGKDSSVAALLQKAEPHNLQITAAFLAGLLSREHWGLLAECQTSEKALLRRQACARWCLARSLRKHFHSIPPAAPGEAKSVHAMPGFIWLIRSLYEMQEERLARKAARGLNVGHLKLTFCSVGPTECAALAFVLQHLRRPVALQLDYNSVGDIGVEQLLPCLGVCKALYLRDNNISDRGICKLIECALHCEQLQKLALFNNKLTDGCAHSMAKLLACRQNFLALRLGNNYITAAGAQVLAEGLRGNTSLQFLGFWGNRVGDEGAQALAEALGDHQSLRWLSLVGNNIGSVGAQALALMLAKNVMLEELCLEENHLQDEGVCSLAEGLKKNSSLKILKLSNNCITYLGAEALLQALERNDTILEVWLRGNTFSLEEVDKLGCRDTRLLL

HEK293 [6] = test: NOD1 signaling inhibitors, primary screen, cell-based, luminescence, uHTS (AID 1578); format: functional; conditions: Homo sapiens
[7] = target: Female germline-specific tumor suppressor gld-1 (Caenorhabditis elegans, UniProt Q17339); test: inhibitors of GLD-1 binding to TGE RNA, dose response, biochemical, fluorescence polarization, C. elegans (AID 2802);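 further: fluorescence polarization of labeled TGE RNA bound by purified gld-1 protein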
Sequence of Female germline-specific tumor suppressor gld-1 (Q17339 whole entry): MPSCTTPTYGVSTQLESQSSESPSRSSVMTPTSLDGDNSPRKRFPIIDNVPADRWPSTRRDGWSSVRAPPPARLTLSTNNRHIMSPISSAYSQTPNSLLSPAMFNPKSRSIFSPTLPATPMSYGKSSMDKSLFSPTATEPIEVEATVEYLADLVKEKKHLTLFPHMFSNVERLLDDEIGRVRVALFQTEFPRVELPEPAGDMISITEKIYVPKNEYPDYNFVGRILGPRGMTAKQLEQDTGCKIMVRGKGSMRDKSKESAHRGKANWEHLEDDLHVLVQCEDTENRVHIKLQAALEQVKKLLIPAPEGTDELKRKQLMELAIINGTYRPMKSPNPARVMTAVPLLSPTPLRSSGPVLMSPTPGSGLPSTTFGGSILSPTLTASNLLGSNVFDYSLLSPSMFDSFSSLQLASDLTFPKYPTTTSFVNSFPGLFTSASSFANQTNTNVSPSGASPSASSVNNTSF

[8] = target: E3 ubiquitin-protein ligase XIAP (Homo sapiens, UniProt P98170); test: Counter Screen using XIAP-Bir3 for Chemical Antagonists of Bir1/2 domains of IAP-family anti-apoptotic proteins. [Related pubchem assays (depositor defined):AID1018, AID1449, AID1514, AID1638, AID1749, AID1750, AID488957, AID488963]
Sequence of E3 ubiquitin-protein ligase XIAP (P98170 whole entry): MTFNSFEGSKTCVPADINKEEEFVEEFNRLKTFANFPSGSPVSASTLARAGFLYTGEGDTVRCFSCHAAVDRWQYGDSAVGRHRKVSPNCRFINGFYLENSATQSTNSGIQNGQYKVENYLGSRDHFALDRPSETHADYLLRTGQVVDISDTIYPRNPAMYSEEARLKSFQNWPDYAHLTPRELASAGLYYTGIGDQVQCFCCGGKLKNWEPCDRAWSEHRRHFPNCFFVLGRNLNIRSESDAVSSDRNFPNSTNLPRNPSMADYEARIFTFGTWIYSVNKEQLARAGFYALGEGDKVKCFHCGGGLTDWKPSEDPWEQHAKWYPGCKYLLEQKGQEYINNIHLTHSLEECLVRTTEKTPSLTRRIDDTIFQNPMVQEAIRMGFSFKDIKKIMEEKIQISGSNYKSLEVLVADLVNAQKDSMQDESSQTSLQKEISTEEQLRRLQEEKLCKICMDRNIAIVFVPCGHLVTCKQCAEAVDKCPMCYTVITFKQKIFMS

Protein Rev = Protein Rev (Human immunodeficiency virus type 1 group M subtype B (isolate HXB2)(HIV-1), UniProt P04618); test: inhibitors of Rev binding to RRE RNA, dose response, biochemical, fluorescence polarization, HIV-1 (AID 434976); parameters: species or system Human immunodeficiency virus 1
Sequence of Protein Rev (P04618 whole entry): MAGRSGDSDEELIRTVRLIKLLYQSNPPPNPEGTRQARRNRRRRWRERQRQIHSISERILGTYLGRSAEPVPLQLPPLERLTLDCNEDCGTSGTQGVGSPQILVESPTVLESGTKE

Coagulation factor XII [9] = target: T1, Coagulation factor XII (Homo sapiens, UniProt P00748); format: functional;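 further: activated factor XIIa alpha cleaving a fluorogenic AMC peptide substrate; inhibitor potency from loss of enzyme activity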
T1 sequence (P00748 whole entry): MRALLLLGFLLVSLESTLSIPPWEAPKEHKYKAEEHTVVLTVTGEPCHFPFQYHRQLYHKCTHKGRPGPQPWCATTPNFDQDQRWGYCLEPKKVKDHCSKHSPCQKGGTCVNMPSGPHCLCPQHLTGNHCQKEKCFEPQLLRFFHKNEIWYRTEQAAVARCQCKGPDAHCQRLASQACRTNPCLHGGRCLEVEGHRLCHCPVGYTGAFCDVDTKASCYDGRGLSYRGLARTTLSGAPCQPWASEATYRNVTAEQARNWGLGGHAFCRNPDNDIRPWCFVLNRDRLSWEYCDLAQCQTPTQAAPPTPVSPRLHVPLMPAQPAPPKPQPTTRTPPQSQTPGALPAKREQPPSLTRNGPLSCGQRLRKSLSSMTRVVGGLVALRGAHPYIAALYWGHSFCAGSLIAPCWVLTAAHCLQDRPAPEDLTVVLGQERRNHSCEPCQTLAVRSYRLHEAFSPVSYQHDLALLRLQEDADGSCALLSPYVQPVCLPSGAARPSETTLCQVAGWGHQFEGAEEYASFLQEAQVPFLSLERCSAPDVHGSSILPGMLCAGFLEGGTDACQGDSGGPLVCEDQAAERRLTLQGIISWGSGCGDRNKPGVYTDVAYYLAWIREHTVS

Protein RecA = target: T2, Protein RecA (Mycobacterium tuberculosis, UniProt P9WHJ3); test: Fluorescence Cell-Free Homogeneous Dose Retest to Identify Inhibitors of RecA-Intein Splicing Activity. [Related pubchem assays (depositor defined):AID2097, AID2223, AID489010, AID492950]; format: functional
T2 sequence (P9WHJ3 whole entry): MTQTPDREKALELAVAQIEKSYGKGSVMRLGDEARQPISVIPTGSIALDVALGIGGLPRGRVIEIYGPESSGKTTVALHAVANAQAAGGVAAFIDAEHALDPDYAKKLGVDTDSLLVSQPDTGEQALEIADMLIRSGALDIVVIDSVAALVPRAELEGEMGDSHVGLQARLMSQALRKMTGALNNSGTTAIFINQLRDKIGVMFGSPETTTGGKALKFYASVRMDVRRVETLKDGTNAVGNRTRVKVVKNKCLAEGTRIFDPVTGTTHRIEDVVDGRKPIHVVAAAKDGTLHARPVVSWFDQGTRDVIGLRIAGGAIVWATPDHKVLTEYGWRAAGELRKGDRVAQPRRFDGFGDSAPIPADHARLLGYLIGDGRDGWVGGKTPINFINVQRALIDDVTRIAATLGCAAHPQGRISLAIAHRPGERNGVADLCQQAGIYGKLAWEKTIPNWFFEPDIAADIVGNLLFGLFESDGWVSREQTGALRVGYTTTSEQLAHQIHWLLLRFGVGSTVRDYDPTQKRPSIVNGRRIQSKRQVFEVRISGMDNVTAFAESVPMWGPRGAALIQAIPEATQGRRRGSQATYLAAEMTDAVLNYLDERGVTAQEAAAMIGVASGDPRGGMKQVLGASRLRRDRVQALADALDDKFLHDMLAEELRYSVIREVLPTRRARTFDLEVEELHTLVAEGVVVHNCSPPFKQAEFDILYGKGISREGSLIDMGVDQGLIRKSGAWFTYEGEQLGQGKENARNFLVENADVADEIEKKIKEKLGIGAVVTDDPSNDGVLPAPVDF

[10] = target: T3, Replicative DNA helicase DnaB (Mycobacterium tuberculosis, UniProt P9WMR3); test: DnaB intein splicing inhibitors, dose response, biochemical, cell-free fluorescence (AID 449749); format: functional
T3 sequence (P9WMR3 whole entry): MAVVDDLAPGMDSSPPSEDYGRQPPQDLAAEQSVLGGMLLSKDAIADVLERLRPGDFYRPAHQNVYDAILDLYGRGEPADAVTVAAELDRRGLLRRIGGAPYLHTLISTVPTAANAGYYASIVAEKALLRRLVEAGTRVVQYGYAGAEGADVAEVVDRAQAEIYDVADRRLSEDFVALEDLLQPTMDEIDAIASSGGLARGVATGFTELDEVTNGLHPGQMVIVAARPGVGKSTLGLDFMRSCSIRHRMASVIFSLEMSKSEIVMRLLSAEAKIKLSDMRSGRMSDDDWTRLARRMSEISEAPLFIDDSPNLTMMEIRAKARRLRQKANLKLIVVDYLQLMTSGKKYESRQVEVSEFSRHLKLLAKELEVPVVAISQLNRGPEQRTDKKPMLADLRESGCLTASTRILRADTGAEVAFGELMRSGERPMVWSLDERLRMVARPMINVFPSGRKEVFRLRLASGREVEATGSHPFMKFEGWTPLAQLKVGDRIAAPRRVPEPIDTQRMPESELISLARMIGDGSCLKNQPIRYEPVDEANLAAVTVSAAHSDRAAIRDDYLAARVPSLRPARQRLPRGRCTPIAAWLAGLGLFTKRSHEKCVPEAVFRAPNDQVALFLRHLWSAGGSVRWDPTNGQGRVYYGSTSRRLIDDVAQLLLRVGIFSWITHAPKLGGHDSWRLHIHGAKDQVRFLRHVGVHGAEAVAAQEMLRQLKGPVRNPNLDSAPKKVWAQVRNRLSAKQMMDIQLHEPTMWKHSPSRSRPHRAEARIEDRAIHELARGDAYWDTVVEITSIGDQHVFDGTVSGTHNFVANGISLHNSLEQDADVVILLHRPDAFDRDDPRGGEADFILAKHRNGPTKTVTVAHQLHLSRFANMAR

Coagulation factor XII [11] = target: T1, Coagulation factor XII; test: FXIIa inhibitor potency, concentration-response, biochemical (AID 716); format: functional
[12] = target: T4, Mannose-6-phosphate isomerase (Homo sapiens, UniProt P34949); test: human PMI inhibitors, high substrate, primary screen, biochemical, fluorescence intensity, high mannose 6-phosphate (AID 1220)
T4 sequence (P34949 whole entry): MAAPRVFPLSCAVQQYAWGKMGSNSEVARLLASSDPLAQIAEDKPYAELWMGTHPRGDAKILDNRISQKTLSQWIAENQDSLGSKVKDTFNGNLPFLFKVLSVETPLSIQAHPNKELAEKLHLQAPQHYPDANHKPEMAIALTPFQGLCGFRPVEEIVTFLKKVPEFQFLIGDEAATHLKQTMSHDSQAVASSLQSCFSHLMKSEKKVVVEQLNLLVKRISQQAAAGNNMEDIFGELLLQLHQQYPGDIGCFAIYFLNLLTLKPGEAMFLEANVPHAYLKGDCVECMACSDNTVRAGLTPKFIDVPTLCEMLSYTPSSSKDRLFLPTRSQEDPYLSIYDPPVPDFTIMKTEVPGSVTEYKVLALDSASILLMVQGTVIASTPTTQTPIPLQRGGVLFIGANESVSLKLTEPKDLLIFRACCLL

Beta-galactosidase = Beta-galactosidase (Escherichia coli, UniProt Q8VNN2); test: beta-galactosidase enzyme inhibitors and activators, dose response, artefact control for CCR6 antagonist project, biochemical, E. coli enzyme, set 3 (AID 504712); format: functional
Sequence of Beta-galactosidase (Q8VNN2 whole entry): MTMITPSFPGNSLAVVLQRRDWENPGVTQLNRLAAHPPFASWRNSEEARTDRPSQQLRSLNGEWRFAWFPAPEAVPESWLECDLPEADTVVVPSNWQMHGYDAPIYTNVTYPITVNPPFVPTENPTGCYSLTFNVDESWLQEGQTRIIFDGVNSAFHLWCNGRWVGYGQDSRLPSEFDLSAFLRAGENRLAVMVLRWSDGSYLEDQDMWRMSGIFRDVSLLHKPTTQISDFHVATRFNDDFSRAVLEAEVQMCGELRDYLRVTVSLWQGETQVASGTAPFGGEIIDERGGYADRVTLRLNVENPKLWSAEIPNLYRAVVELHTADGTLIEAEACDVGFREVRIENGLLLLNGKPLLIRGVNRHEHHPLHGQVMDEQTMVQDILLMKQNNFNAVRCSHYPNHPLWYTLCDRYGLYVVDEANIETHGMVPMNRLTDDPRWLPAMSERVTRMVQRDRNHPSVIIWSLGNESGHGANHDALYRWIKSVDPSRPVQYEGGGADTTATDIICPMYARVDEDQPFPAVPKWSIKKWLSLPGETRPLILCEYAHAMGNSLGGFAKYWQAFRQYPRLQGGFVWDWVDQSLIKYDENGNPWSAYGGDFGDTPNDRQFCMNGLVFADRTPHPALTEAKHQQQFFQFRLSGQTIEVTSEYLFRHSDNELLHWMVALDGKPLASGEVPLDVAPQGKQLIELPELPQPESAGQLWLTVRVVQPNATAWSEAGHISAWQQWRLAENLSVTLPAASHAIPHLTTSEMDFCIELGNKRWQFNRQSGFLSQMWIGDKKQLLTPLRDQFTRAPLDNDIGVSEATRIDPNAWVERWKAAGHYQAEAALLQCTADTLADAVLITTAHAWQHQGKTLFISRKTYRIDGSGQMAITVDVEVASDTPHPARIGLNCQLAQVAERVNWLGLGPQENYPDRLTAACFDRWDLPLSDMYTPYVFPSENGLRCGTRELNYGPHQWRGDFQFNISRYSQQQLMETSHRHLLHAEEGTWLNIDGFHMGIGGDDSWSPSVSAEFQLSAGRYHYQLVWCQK

SMILES | IC50 (HEK293 [1]) | IC50 (HEK293 [2]) | IC50 (HEK293 [3]) | IC50 (HEK293 [4]) | EC50 [5] | EC50 (HEK293 [6]) | also measured
COc1cc2c(cc1OC)C(c1ccc(-c3cc(Cl)ccc3Cl)o1)=NCC2 | > 20 µM (inactive) | > 20 µM (inactive) | 2.75 µM (active) | 5.36 µM (active) | > 20 µM (inactive) | > 20 µM (inactive) | –
COCCOC(=O)c1sc(=S)n(CCOC)c1N | – | – | – | – | – | – | IC50 [7]: 5.31 µM (active); IC50 [8]: 0.699 µM (active); IC50 (Protein Rev): 11.1 µM (not active)
CC(=O)Nc1ccc(OC(=O)c2ccco2)cc1 | – | – | – | – | – | – | IC50 (Coagulation factor XII [9]): > 50 µM (inactive); EC50 (Protein RecA): 12.1 µM (active); AC50 [10]: 93.9 µM (active)
CN1CC2(Cc3c1ccc1ccccc31)C(=O)OC(C)(C)OC2=O | – | – | – | – | – | – | IC50 (Coagulation factor XII [11]): > 50 µM (inactive); IC50 [12]: > 50 µM (not active)
O=C(NC(=S)N1CCN(Cc2ccc3c(c2)OCO3)CC1)c1cccc(Br)c1 | > 20 µM (inactive) | > 20 µM (inactive) | 6.54 µM (inactive) | 16.1 µM (active) | > 20 µM (inactive) | 7.03 µM (active) | IC50 (Beta-galactosidase): > 66.6 µM (inactive)
